Measurements reported in patent US10561681B2, “Antimetastatic 2H-selenopheno[3,2-h]chromenes, synthesis thereof, and methods of using same agents” (Latvian Institute of Organic Synthesis, priority 2016, dated 2020).
Values joined by “and” are separate entries in the source; they are usually repeats but may differ in a detail not shown here. Equal entries are not always repeated. Where two headings read alike, the source gives them in different places.

Tests used:
Type in all cases: cell-based
[1] = Basal cytotoxicity test, Neutral Red Uptake (NRU) assay; conditions: for LD50 at 24 h: mouse, po, acute oral LD50 calculated from 3T3 NRU IC50 by regression formula, read-out: Basal cytotoxicity Estimated* LD50; for IC50 at 24 h: normal mouse embryo fibroblasts, read-out: Cytotoxicity IC50, 3T3
Procedure: In parallel, the borderline concentration relevant to the highest tolerated dose has been determined for each compound using the NIH 3T3 (mouse embryo fibroblasts) cell line and the basal cytotoxicity obtained has then been used to predict the starting doses for in vivo acute oral LD50 values in rodents.
the Neutral Red Uptake (NRU) assay was performed according to the standard protocol of Stokes modified by the NICEATM-ECVAM validation study. The NRU cytotoxicity assay procedure is based on the ability of viable cells to incorporate and bind Neutral Red, a supravitally dye. Balb/c 3T3 (Mouse Swiss Albino embryo fibroblast) cells (9000 cells/well) were placed into 96-well plates for 24 h in Dulbecco's modified Eagle's (DMEM) medium containing 5% fetal bovine serum. The cells were then exposed to the test compounds over a range of […] concentrations (1000, 316, 100, 31, 10, 3, 1 μg/ml) for 24 h. Untreated cells were used as a control. After 24 h, the medium was removed from all plates. Then, 250 μL of Neutral Red solution were added (0.05 mg/mL NR in DMEM 24 h pre-incubated at 37° C. and then filtered before use through 0.22-μm syringe filter). Plates were incubated for 3 h and then cells were washed three times with PBS. The dye within viable cells was released by extraction with a mixture of acetic acid, ethanol and water (1:50:49). Absorbance of Neutral Red was measured using a spectrophotometer multiplate reader (TECAN, Infinite M1000) at 540 nm. The percentage of living cells was calculated using the formula: OD (treated cells)*100/OD (control cells). The IC50 values were calculated using the programme Graph Pad Prism® 3.0.
Data from the in vitro tests were used for estimating the starting dose for acute oral systemic toxicity tests in rodents. […] The value is recalculated to mg/kg and compounds are evaluated in accordance with four toxicity categories: category 1: LD50≤5 mg/kg (highly toxic); category 2: 5<LD50≤50 mg/kg (moderately toxic); category 3: 50<LD50≤300 mg/kg (slightly toxic); category 4: 300<LD50≤2 000 mg/kg (practically non-toxic).

[2] = tested on: HT-1080 (human fibrosarcoma); assay: In vitro cytotoxicity, MTT test; conditions: HT-1080, MTT, 72 h, read-out: Cytotoxicity IC50, HT-1080
Procedure: (§1) Anticancer activity of selenopheno[h]chromenes was tested in vitro using cytotoxicity assay. […] About 2-9·10^4 cells/mL (depending on line nature) were placed in 96-well plates immediately after compounds were added to the wells. Untreated cells were used as a control. The plates were incubated for 72 h, 37° C., 5% CO2. The number of surviving cells was determined using 3-(4,5-dimethylthiazol-2-yl)-2,5-diphenyltetrazolinium bromide (MTT). MTT-test: after incubating culture medium was removed and 200 μL fresh medium with 10 mM HEPES was added in each well of the plate, than 20 μL MTT (2 mg/mL in HBSS) was added. After incubation (3 hr, 37° C., 5% CO2), the medium with MTT was removed and 200 μL DMSO were added at once to each sample. The samples were tested at 540 nm on Anthos HT II photometer.

[3] = tested on: HepG2 (human hepatocellular carcinoma); assay: In vitro cytotoxicity, MTT test; conditions: HepG2, MTT, 72 h, read-out: Cytotoxicity IC50, HepG2
Procedure: as §1

CCL-8 (mouse sarcoma) = assay: In vitro cytotoxicity, MTT test; conditions: 72 h, read-out: Cytotoxicity IC50, CCL-8
Procedure: as §1

MG-22A (mouse hepatoma) = assay: In vitro cytotoxicity, MTT test; conditions: MTT, 72 h, read-out: Cytotoxicity IC50, MG-22A
Procedure: as §1

[4] = tested on: MES-SA (human uterus sarcoma); assay: In vitro cytotoxicity, MTT test; conditions: MTT, 72 h, read-out: Cytotoxicity IC50, MES-SA
Procedure: as §1

[5] = tested on: A549 (human lung carcinoma); assay: In vitro cytotoxicity, MTT test; conditions: Homo sapiens, A549, 72 h, MTT, 72 h; read-out: Cytotoxicity IC50, A549
Procedure: as §1

[6] = tested on: MCF-7 (human breast adenocarcinoma, estrogen-positive); assay: In vitro cytotoxicity, MTT test; conditions: MCF7, MTT, 72 h, read-out: Cytotoxicity IC50, MCF-7
Procedure: as §1

[7] = tested on: MDA-MB-435s (human melanoma); assay: In vitro cytotoxicity, MTT test; conditions: MTT, 72 h, read-out: Cytotoxicity IC50, MDA-MB-435s
Procedure: as §1

[8] = tested on: SH-SY5Y (human neuroblastoma); assay: In vitro cytotoxicity, MTT test; conditions: Homo sapiens, SH-SY5Y, 72 h, MTT, read-out: Cytotoxicity IC50, SHSY5Y
Procedure: as §1

| Compound | LD50 at 24 h [1] | IC50 at 24 h [1] [µM] | IC50 [2] [µM] | IC50 [3] [µM] | IC50 (CCL-8 (mouse sarcoma); MTT) [µM] | IC50 (MG-22A (mouse hepatoma)) [µM] | IC50 [4] [µM] | IC50 [5] [µM] | IC50 [6] [µM] | IC50 [7] [µM] | IC50 [8] [µM] | IC50 (CCL-8 (mouse sarcoma)) [µM] |
| --- | --- | --- | --- | --- | --- | --- | --- | --- | --- | --- | --- | --- |
| COC(=O)c1cc2ccc3c(Br)c(C(C)(C)O)[se]c3c2oc1=O [Compound I-1, Methyl 7-bromo-8-(2-hydroxypropan-2-yl)-2-oxo-2H-selenopheno[3,2-h]chromene-3-carboxylate] | > 6000 µmol/kg and > 2660 mg/kg | 225 ± 11 | 225 ± 11 | > 117 | > 225 | > 122 | 95 ± 9 | 196 ± 9 | 221 ± 13 | 95 ± 8 | 32 | – |
| CC(C)CCC[C@@H](C)[C@H]1CC[C@H]2[C@@H]3CC=C4C[C@@H](OC(=O)c5cc6ccc7c(Br)c(C8=CCCCC8)[se]c7c6oc5=O)CC[C@]4(C)[C@H]3CC[C@]12C [Compound I-17, (3S,8S,9S,10R,13R,14S,17R)-10,13-Dimethyl-17-((R)-6-methylheptan-2-yl)-2,3,4,7,8,9,10,11,12,13,14,15,16,17-tetradecahydro-1H-cyclopenta[a]phenanthren-3-yl-7-bromo-8-(cyclohex-1-en-1-yl)-2-oxo-2H-selenopheno[3,2-h]chromene-3-carboxylate] | 3000 µmol/kg and 2450 mg/kg | > 117 | > 117 | > 117 | – | – | > 117 | > 117 | > 117 | – | > 117 | – |
| COC1(c2[se]c3c(ccc4cc(C(=O)O)c(=O)oc43)c2Br)CCCCC1 [Compound I-12, 7-Bromo-8-(1-methoxycyclohexyl)-2-oxo-2H-selenopheno[3,2-h]chromene-3-carboxylic acid] | 300 µmol/kg and 134 mg/kg | 213 ± 7 | 51 ± 2 | 97 ± 7 | – | > 206 | > 206 | 61 ± 1 | 141 ± 10 | 127 ± 12 | 193 ± 2 | 134 ± 6 |
| COC1(c2[se]c3c(ccc4cc(C(=O)N5CCOCC5)c(=O)oc43)c2Br)CCCCC1 [Compound I-22, 7-Bromo-8-(1-methoxycyclohexyl)-3-(morpholine-4-carbonyl)-2H-selenopheno[3,2-h]chromen-2-one] | 300 µmol/kg and 195 mg/kg | 47 ± 4 | 38 ± 2 | 47 ± 2 | 39 ± 3 | 37 ± 1 | 41 ± 2 | 43 ± 4 | 18 ± 2 | 43 ± 3 | 98 ± 3 | – |
| COC(=O)c1cc2ccc3c(Br)c(CN4CCCCC4)[se]c3c2oc1=O [Compound I-8, Methyl 7-bromo-2-oxo-8-(piperidin-1-ylmethyl)-2H-selenopheno[3,2-h]chromene-3-carboxylate] | > 3900 µmol/kg and > 2000 mg/kg | 54 ± 3 | > 192 | 181 ± 9 | > 122 | 46 ± 3 | > 117 | 115 ± 8 | 165 ± 5 | > 192 | > 192 | – |
